Data taken from ChEMBL document CHEMBL1201862, “PubChem BioAssay data set” (2004).
Structures can show the parent of a compound that is named as a salt.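 Exposure lasted 48 hours, with cells grown in 96-well plates and compounds tested at five concentrations. GI50 marks 50% less growth.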 Active and inactive are the calls of the source. No stated cut-off is given here; in the data, active = GI50 up to about 1.1 µM and inactive = higher.

Experiments:
Test in all cases: NCI tumour cell line growth inhibition, 48 h
SF-539 = tested on: SF-539
HT-29 = tested on: HT-29
SF-268 = tested on: SF-268
LXFL 529 = tested on: LXFL 529
OVCAR-8 = tested on: OVCAR-8
SNB-75 = tested on: SNB-75
A549 = tested on: A549
SN12C = tested on: SN12C
HCC 2998 = tested on: HCC 2998
ACHN = tested on: ACHN
UO-31 = tested on: UO-31
CAKI-1 = tested on: CAKI-1
A498 = tested on: A498
K562 = tested on: K562
RPMI-8226 = tested on: RPMI-8226
MCF7 = tested on: MCF7
MDA-MB-435 = tested on: MDA-MB-435
Hs-578T = tested on: Hs-578T
DU-145 = tested on: DU-145
BT-549 = tested on: BT-549

Row | Compound | GI50 (SF-539) | GI50 (HT-29) | GI50 (SF-268) | GI50 (LXFL 529) | GI50 (OVCAR-8) | GI50 (SNB-75) | GI50 (A549) | GI50 (SN12C) | GI50 (HCC 2998) | GI50 (ACHN) | GI50 (UO-31) | GI50 (CAKI-1) | GI50 (A498) | GI50 (K562) | GI50 (RPMI-8226) | GI50 (MCF7) | GI50 (MDA-MB-435) | GI50 (Hs-578T) | GI50 (DU-145) | GI50 (BT-549)
1 | CCN1CCC(O)(c2ccccc2)C(C(=O)c2ccccc2)C1 (centres undefined) | 62.5 µM (inactive) | 20.4 µM (inactive) | > 31.6 µM (inactive) | 15.6 µM (inactive) | 26.4 µM (inactive) | > 89.3 µM (inactive) | > 67.1 µM (inactive) | 20.1 µM (inactive) | > 100 µM (inactive) | 16.7 µM (inactive) | > 46.2 µM (inactive) | 14 µM (inactive) | > 100 µM (inactive) | 23.7 µM (inactive) | 6.35 µM (inactive) |  |  |  |  | 
2 | CN(C)/C(=N/C(=O)Nc1ccccc1)SCc1ccccc1 | > 100 µM (inactive) | > 100 µM (inactive) | > 100 µM (inactive) | > 100 µM (inactive) | > 100 µM (inactive) | > 100 µM (inactive) | > 100 µM (inactive) | > 100 µM (inactive) | > 100 µM (inactive) | > 100 µM (inactive) | > 100 µM (inactive) | > 100 µM (inactive) | > 100 µM (inactive) | 76.9 µM (inactive) | > 100 µM (inactive) |  |  |  |  | 
3 | CN(C)CC1CCC(CN(C)C)C1=O (centres undefined) | 18.4 µM (inactive) | 6.64 µM (inactive) | 19.5 µM (inactive) | 1.47 µM (inactive) | 3.31 µM (inactive) | 20.7 µM (inactive) | 18.7 µM (inactive) | 6.89 µM (inactive) | 18 µM (inactive) | 4.7 µM (inactive) | 7.67 µM (inactive) | 0.736 µM (active) | 25.4 µM (inactive) | 0.418 µM (active) | 0.541 µM (active) | 0.458 µM (active) | 20 µM (inactive) | 3.06 µM (inactive) |  | 
4 | CC1(Cl)C(=O)NC(=O)N(C2CC(N=[N+]=[N-])C(CO)O2)C1N=[N+]=[N-] (centres undefined) | > 100 µM (inactive) | > 100 µM (inactive) | > 100 µM (inactive) | > 100 µM (inactive) | > 100 µM (inactive) | > 100 µM (inactive) | > 100 µM (inactive) | > 100 µM (inactive) | > 100 µM (inactive) | > 100 µM (inactive) | > 100 µM (inactive) | > 100 µM (inactive) | > 100 µM (inactive) | > 100 µM (inactive) | > 100 µM (inactive) |  |  |  |  | 
5 | O=C1OC(c2ccccc2)=N/C1=C/N1CCCC1C(=O)O (centres undefined) | > 100 µM (inactive) | > 100 µM (inactive) | > 100 µM (inactive) | > 100 µM (inactive) | > 100 µM (inactive) | > 100 µM (inactive) | > 100 µM (inactive) |  | > 100 µM (inactive) | > 100 µM (inactive) | > 100 µM (inactive) | > 100 µM (inactive) | > 100 µM (inactive) | > 100 µM (inactive) | > 100 µM (inactive) |  |  |  |  | 
6 | CNC(C)Cc1ccccc1OC (centres undefined) [METHOXYPHENAMINE HYDROCHLORIDE] | > 100 µM (inactive) | > 100 µM (inactive) | > 100 µM (inactive) | > 100 µM (inactive) | > 100 µM (inactive) | > 100 µM (inactive) | > 100 µM (inactive) | > 100 µM (inactive) | > 100 µM (inactive) | > 100 µM (inactive) | > 100 µM (inactive) | > 100 µM (inactive) | > 100 µM (inactive) | > 100 µM (inactive) | > 100 µM (inactive) |  |  |  |  | 
7 | O=C(O)CC12C3C4C5C3C1C5C42 (centres undefined) | > 100 µM (inactive) | > 100 µM (inactive) | > 100 µM (inactive) | > 100 µM (inactive) | > 100 µM (inactive) | 76.2 µM (inactive) | > 100 µM (inactive) | > 100 µM (inactive) | > 100 µM (inactive) | > 100 µM (inactive) | 68.9 µM (inactive) | > 100 µM (inactive) | > 100 µM (inactive) | > 100 µM (inactive) | > 100 µM (inactive) |  |  |  |  | 
8 | C/C(=N\NC(=S)N1CCC1)c1ccccn1 | 0.114 µM (active) | 0.01 µM (active) | 0.824 µM (active) | 0.01 µM (active) | 0.01 µM (active) | 0.838 µM (active) | 0.0246 µM (active) |  | 0.374 µM (active) | 0.01 µM (active) | 0.427 µM (active) | 0.0398 µM (active) | 0.446 µM (active) | 0.01 µM (active) | 0.01 µM (active) | 0.0015 µM (active) | 0.0264 µM (active) | 4.06 µM (inactive) | 0.891 µM (active) | 11.5 µM (inactive)
9 | Cc1c2cc[n+](C)cc2c(C)c2c1oc1ccccc12 | 2.24 µM (inactive) | 14.4 µM (inactive) | 0.406 µM (active) | 1.54 µM (inactive) | 1.67 µM (inactive) | 1.98 µM (inactive) | 1.95 µM (inactive) | 0.475 µM (active) | 2.75 µM (inactive) | 39.6 µM (inactive) | 68.7 µM (inactive) | 28.4 µM (inactive) | 42.9 µM (inactive) | 6.38 µM (inactive) | 4.2 µM (inactive) | 6.37 µM (inactive) | 7.83 µM (inactive) | 0.54 µM (active) | 15.9 µM (inactive) | 0.608 µM (active)
10 | S=c1sc2sc(=S)sc2s1 | 23.9 µM (inactive) | 29.6 µM (inactive) | 43.1 µM (inactive) | 13.6 µM (inactive) | 50.1 µM (inactive) | 35.5 µM (inactive) | 31.6 µM (inactive) | 96.8 µM (inactive) | > 100 µM (inactive) | > 100 µM (inactive) | 30 µM (inactive) | > 100 µM (inactive) | 23.5 µM (inactive) | 22.3 µM (inactive) | 23.1 µM (inactive) |  |  |  |  | 
11 | O=C/C1=C/C2=Cc3ccccc3C=C(/C=C(/C=O)C1)C2 | 46.6 µM (inactive) | 40.5 µM (inactive) | 38.1 µM (inactive) | 30.3 µM (inactive) | 28.9 µM (inactive) | 27.2 µM (inactive) | > 100 µM (inactive) | 42.6 µM (inactive) | 45.9 µM (inactive) | > 100 µM (inactive) | 34 µM (inactive) | 41.1 µM (inactive) | > 100 µM (inactive) | 18.1 µM (inactive) | 32 µM (inactive) |  |  |  |  | 
12 | CCN(CC)c1c(C)nnn1C1OC(COC(C)=O)C(OC(C)=O)C(OC(C)=O)C1OC(C)=O (centres undefined) | > 100 µM (inactive) | > 100 µM (inactive) | > 100 µM (inactive) | > 100 µM (inactive) | > 100 µM (inactive) | > 100 µM (inactive) | > 100 µM (inactive) | > 100 µM (inactive) | > 100 µM (inactive) | > 100 µM (inactive) | > 100 µM (inactive) | > 100 µM (inactive) | > 100 µM (inactive) | > 100 µM (inactive) | 28.6 µM (inactive) |  |  |  |  | 
13 | Cc1ccc(C(=O)Oc2ccccc2)cc1/N=N/N(C)C | > 100 µM (inactive) | 37.1 µM (inactive) | > 87.7 µM (inactive) | > 100 µM (inactive) | > 100 µM (inactive) |  | > 100 µM (inactive) | > 100 µM (inactive) | > 100 µM (inactive) | > 100 µM (inactive) | > 100 µM (inactive) | > 100 µM (inactive) |  | 76.4 µM (inactive) | > 100 µM (inactive) | 36.8 µM (inactive) | > 100 µM (inactive) | > 100 µM (inactive) | > 100 µM (inactive) | > 100 µM (inactive)
14 | CCOC(=O)C(CNc1ccc(O)cc1)NC(=O)c1ccccc1 (centres undefined) | > 100 µM (inactive) | > 100 µM (inactive) | > 100 µM (inactive) | 77.3 µM (inactive) | > 100 µM (inactive) | > 100 µM (inactive) | > 100 µM (inactive) | > 100 µM (inactive) | > 100 µM (inactive) | 54.8 µM (inactive) | > 100 µM (inactive) | > 100 µM (inactive) | > 100 µM (inactive) | 37.8 µM (inactive) | 53.6 µM (inactive) |  |  |  |  | 
15 | N#C/C(=C\c1cc(O)c(O)c(O)c1)C(N)=O | > 100 µM (inactive) | > 92.7 µM (inactive) | 67.3 µM (inactive) | > 100 µM (inactive) | > 100 µM (inactive) | 63.7 µM (inactive) | > 100 µM (inactive) | > 84.3 µM (inactive) | > 100 µM (inactive) | > 93.8 µM (inactive) | > 74.1 µM (inactive) | > 100 µM (inactive) | > 100 µM (inactive) | 62.2 µM (inactive) | > 100 µM (inactive) | > 39.4 µM (inactive) | > 55.7 µM (inactive) | > 100 µM (inactive) | 97.7 µM (inactive) | 97.5 µM (inactive)
